From ChEMBL document CHEMBL5724806, “Unraveling interindividual differences and functional consequences of gut microbial metabolism of immunosuppressants” (2024)

Legend:
Type in all cases: ADME
[1] = (§1) The drug is tested on the gut metagenome community of T-01 with ENA study accession number: PRJEB31790 for biotransformation under microaerobic condition. The drug concentrations were measured over 7 timepoints collected between 0 and 12 hours of incubation by liquid-chromatography-coupled mass spectrometry (LC–MS); parameters: dose 5 uM, timepoint 0, 0.75, 1.5, 3, 6, 9, 12 hours; conditions: 5 µM
[2] = as §1, with “A-08” for “T-01”, “anaerobic” for “microaerobic”; parameters: dose 5 uM, timepoint 0, 0.75, 1.5, 3, 6, 9, 12 hours; conditions: 5 µM
[3] = The drug is tested on Parabacteroides merdae strain: DSM19495 for biotransformation under anaerobic condition. The drug concentrations were measured over 6 timepoints collected between 0 and 12 hours of incubation by liquid-chromatography-coupled mass spectrometry (LC–MS); parameters: dose 5 uM, timepoint 0, 1.5, 3, 6, 9, 12 hours; conditions: 5 µM
[4] = The drug is tested on Streptococcus mitis strain: DSM12643 for biotransformation under anaerobic condition. The drug concentrations were measured over 6 timepoints collected between 0 and 12 hours of incubation by liquid-chromatography-coupled mass spectrometry (LC–MS); parameters: dose 5 uM, timepoint 0, 1.5, 3, 6, 9, 12 hours; conditions: 5 µM
[5] = The drug is tested on Alloscardovia omnicolens strain: DSM21503 for biotransformation under microaerobic condition. The drug concentrations were measured over 6 timepoints collected between 0 and 12 hours of incubation by liquid-chromatography-coupled mass spectrometry (LC–MS); parameters: dose 5 uM, timepoint 0, 1.5, 3, 6, 9, 12 hours; conditions: 5 µM
[6] = as §1, with “T-02” for “T-01”, “anaerobic” for “microaerobic”; parameters: dose 5 uM, timepoint 0, 0.75, 1.5, 3, 6, 9, 12 hours; conditions: 5 µM
[7] = as §1, with “A-06” for “T-01”; parameters: dose 5 uM, timepoint 0, 0.75, 1.5, 3, 6, 9, 12 hours; conditions: 5 µM
[8] = The drug is tested on Actinomyces naeslundi strain: DSM43013 for biotransformation under microaerobic condition. The drug concentrations were measured over 6 timepoints collected between 0 and 12 hours of incubation by liquid-chromatography-coupled mass spectrometry (LC–MS); parameters: dose 5 uM, timepoint 0, 1.5, 3, 6, 9, 12 hours; conditions: actinomyces naeslundii, 5 µM
[9] = The drug is tested on Dorea formicigenerans strain: DSM3992 for biotransformation under anaerobic condition. The drug concentrations were measured over 6 timepoints collected between 0 and 12 hours of incubation by liquid-chromatography-coupled mass spectrometry (LC–MS); parameters: dose 5 uM, timepoint 0, 1.5, 3, 6, 9, 12 hours; conditions: 5 µM
[10] = The drug is tested on Prevotella copri strain: DSM18205 for biotransformation under anaerobic condition. The drug concentrations were measured over 6 timepoints collected between 0 and 12 hours of incubation by liquid-chromatography-coupled mass spectrometry (LC–MS); parameters: dose 5 uM, timepoint 0, 1.5, 3, 6, 9, 12 hours; conditions: segatella copri, 5 µM
[11] = The drug is tested on Lactobacillus ruminis strain: ATCC25644 for biotransformation under microaerobic condition. The drug concentrations were measured over 6 timepoints collected between 0 and 12 hours of incubation by liquid-chromatography-coupled mass spectrometry (LC–MS); parameters: dose 5 uM, timepoint 0, 1.5, 3, 6, 9, 12 hours; conditions: ligilactobacillus ruminis, 5 µM
[12] = as §1, with “A-04” for “T-01”, “anaerobic” for “microaerobic”; parameters: dose 5 uM, timepoint 0, 0.75, 1.5, 3, 6, 9, 12 hours; conditions: 5 µM
[13] = The drug is tested on Bifidobacterium adolescentis strain: DSM20083 for biotransformation under anaerobic condition. The drug concentrations were measured over 6 timepoints collected between 0 and 12 hours of incubation by liquid-chromatography-coupled mass spectrometry (LC–MS); parameters: dose 5 uM, timepoint 0, 1.5, 3, 6, 9, 12 hours; conditions: 5 µM
[14] = as §1, with “T-03” for “T-01”, “anaerobic” for “microaerobic”; parameters: dose 5 uM, timepoint 0, 0.75, 1.5, 3, 6, 9, 12 hours; conditions: 5 µM
[15] = The drug is tested on Enterococcus faecalis strain: ATCC29212 for biotransformation under anaerobic condition. The drug concentrations were measured over 6 timepoints collected between 0 and 12 hours of incubation by liquid-chromatography-coupled mass spectrometry (LC–MS); parameters: dose 5 uM, timepoint 0, 1.5, 3, 6, 9, 12 hours; conditions: 5 µM
[16] = as §1, with “P-03” for “T-01”; parameters: dose 5 uM, timepoint 0, 0.75, 1.5, 3, 6, 9, 12 hours; conditions: 5 µM
[17] = The drug is tested on Streptococcus sanguinis strain: DSM20567 for biotransformation under microaerobic condition. The drug concentrations were measured over 6 timepoints collected between 0 and 12 hours of incubation by liquid-chromatography-coupled mass spectrometry (LC–MS); parameters: dose 5 uM, timepoint 0, 1.5, 3, 6, 9, 12 hours; conditions: 5 µM
[18] = as §1, with “A-07” for “T-01”; parameters: dose 5 uM, timepoint 0, 0.75, 1.5, 3, 6, 9, 12 hours; conditions: 5 µM
[19] = The drug is tested on Bacteroides caccae strain: DSM19024 for biotransformation under anaerobic condition. The drug concentrations were measured over 6 timepoints collected between 0 and 12 hours of incubation by liquid-chromatography-coupled mass spectrometry (LC–MS); parameters: dose 5 uM, timepoint 0, 1.5, 3, 6, 9, 12 hours; conditions: 5 µM
[20] = The drug is tested on Coprococcus comes strain: ATCC27758 for biotransformation under anaerobic condition. The drug concentrations were measured over 6 timepoints collected between 0 and 12 hours of incubation by liquid-chromatography-coupled mass spectrometry (LC–MS); parameters: dose 5 uM, timepoint 0, 1.5, 3, 6, 9, 12 hours; conditions: 5 µM
[21] = The drug is tested on Lactobacillus gasseri strain: DSM20243 for biotransformation under anaerobic condition. The drug concentrations were measured over 6 timepoints collected between 0 and 12 hours of incubation by liquid-chromatography-coupled mass spectrometry (LC–MS); parameters: dose 5 uM, timepoint 0, 1.5, 3, 6, 9, 12 hours; conditions: 5 µM
[22] = The drug is tested on Capnocytophaga ochracea strain: DSM7271 for biotransformation under microaerobic condition. The drug concentrations were measured over 6 timepoints collected between 0 and 12 hours of incubation by liquid-chromatography-coupled mass spectrometry (LC–MS); parameters: dose 5 uM, timepoint 0, 1.5, 3, 6, 9, 12 hours; conditions: 5 µM
[23] = The drug is tested on Bacteroides stercoris strain: HM 1036 for biotransformation under anaerobic condition. The drug concentrations were measured over 6 timepoints collected between 0 and 12 hours of incubation by liquid-chromatography-coupled mass spectrometry (LC–MS); parameters: dose 5 uM, timepoint 0, 1.5, 3, 6, 9, 12 hours; conditions: 5 µM
[24] = The drug is tested on Eubacterium eligens strain: DSM3376 for biotransformation under anaerobic condition. The drug concentrations were measured over 6 timepoints collected between 0 and 12 hours of incubation by liquid-chromatography-coupled mass spectrometry (LC–MS); parameters: dose 5 uM, timepoint 0, 1.5, 3, 6, 9, 12 hours; conditions: lachnospira eligens, 5 µM
[25] = The drug is tested on Lactobacillus fermentum strain: DSM20052 for biotransformation under microaerobic condition. The drug concentrations were measured over 6 timepoints collected between 0 and 12 hours of incubation by liquid-chromatography-coupled mass spectrometry (LC–MS); parameters: dose 5 uM, timepoint 0, 1.5, 3, 6, 9, 12 hours; conditions: limosilactobacillus fermentum, 5 µM
[26] = as §1, with “T-05” for “T-01”; parameters: dose 5 uM, timepoint 0, 0.75, 1.5, 3, 6, 9, 12 hours; conditions: 5 µM
[27] = as §1, with “A-05” for “T-01”; parameters: dose 5 uM, timepoint 0, 0.75, 1.5, 3, 6, 9, 12 hours; conditions: 5 µM
[28] = The drug is tested on Clostridium scindens strain: DSM5676 for biotransformation under anaerobic condition. The drug concentrations were measured over 6 timepoints collected between 0 and 12 hours of incubation by liquid-chromatography-coupled mass spectrometry (LC–MS); parameters: dose 5 uM, timepoint 0, 1.5, 3, 6, 9, 12 hours; conditions: 5 µM
[29] = as §1, with “A-10” for “T-01”; parameters: dose 5 uM, timepoint 0, 0.75, 1.5, 3, 6, 9, 12 hours; conditions: 5 µM
[30] = as §1, with “P-01” for “T-01”; parameters: dose 5 uM, timepoint 0, 0.75, 1.5, 3, 6, 9, 12 hours; conditions: 5 µM

Row | SMILES | Bacterial Biotransformation [1] | Bacterial Biotransformation [2] | Bacterial Biotransformation [3] | Bacterial Biotransformation [4] | Bacterial Biotransformation [5] | Bacterial Biotransformation [6] | Bacterial Biotransformation [7] | Bacterial Biotransformation [8] | Bacterial Biotransformation [9] | Bacterial Biotransformation [10] | Bacterial Biotransformation [11] | Bacterial Biotransformation [12] | Bacterial Biotransformation [13] | Bacterial Biotransformation [14] | Bacterial Biotransformation [15] | Bacterial Biotransformation [16] | Bacterial Biotransformation [17] | Bacterial Biotransformation [18] | Bacterial Biotransformation [19] | Bacterial Biotransformation [20] | further results
1 | COc1c(C)c2c(c(O)c1C/C=C(\C)CCC(=O)O)C(=O)OC2 [MYCOPHENOLIC ACID] | Compound NOT metabolized | Compound NOT metabolized | Compound NOT metabolized | Compound NOT metabolized | Compound NOT metabolized | Compound NOT metabolized | Compound NOT metabolized | Compound NOT metabolized | Compound NOT metabolized | Compound NOT metabolized | Compound NOT metabolized | Compound NOT metabolized | Compound NOT metabolized | Compound NOT metabolized | Compound NOT metabolized | Compound NOT metabolized | Compound NOT metabolized | Compound NOT metabolized | Compound NOT metabolized | Compound NOT metabolized | Bacterial Biotransformation [21]: Compound NOT metabolized; Bacterial Biotransformation [22]: Compound NOT metabolized; Bacterial Biotransformation [23]: Compound NOT metabolized; Bacterial Biotransformation [24]: Compound NOT metabolized; Bacterial Biotransformation [25]: Compound NOT metabolized; Bacterial Biotransformation [26]: Compound metabolized; Bacterial Biotransformation [27]: Compound NOT metabolized; Bacterial Biotransformation [28]: Compound NOT metabolized; Bacterial Biotransformation [29]: Compound NOT metabolized; Bacterial Biotransformation [30]: Compound NOT metabolized
2 | C[C@]12C=CC(=O)C=C1CC[C@@H]1[C@@H]2[C@@H](O)C[C@@]2(C)[C@H]1CC[C@]2(O)C(=O)CO [PREDNISOLONE] | Compound NOT metabolized | Compound metabolized | Compound NOT metabolized | Compound NOT metabolized | Compound NOT metabolized | Compound metabolized | Compound metabolized | Compound NOT metabolized | Compound NOT metabolized | Compound NOT metabolized | Compound NOT metabolized | Compound metabolized | Compound NOT metabolized | Compound NOT metabolized | Compound NOT metabolized | Compound metabolized | Compound NOT metabolized | Compound metabolized | Compound NOT metabolized | Compound NOT metabolized | Bacterial Biotransformation [21]: Compound NOT metabolized; Bacterial Biotransformation [22]: Compound NOT metabolized; Bacterial Biotransformation [23]: Compound NOT metabolized; Bacterial Biotransformation [24]: Compound NOT metabolized; Bacterial Biotransformation [25]: Compound NOT metabolized; Bacterial Biotransformation [26]: Compound NOT metabolized; Bacterial Biotransformation [27]: Compound metabolized; Bacterial Biotransformation [28]: Compound metabolized; Bacterial Biotransformation [29]: Compound metabolized; Bacterial Biotransformation [30]: Compound metabolized
3 | C[C@]12C=CC(=O)C=C1CC[C@@H]1[C@@H]2C(=O)C[C@@]2(C)[C@H]1CC[C@]2(O)C(=O)CO [PREDNISONE] | Compound metabolized | Compound metabolized | Compound NOT metabolized | Compound NOT metabolized | Compound NOT metabolized | Compound metabolized | Compound metabolized | Compound NOT metabolized | Compound NOT metabolized | Compound NOT metabolized | Compound NOT metabolized | Compound metabolized | Compound NOT metabolized | Compound NOT metabolized | Compound NOT metabolized | Compound metabolized | Compound NOT metabolized | Compound metabolized | Compound NOT metabolized | Compound NOT metabolized | Bacterial Biotransformation [21]: Compound NOT metabolized; Bacterial Biotransformation [22]: Compound NOT metabolized; Bacterial Biotransformation [23]: Compound NOT metabolized; Bacterial Biotransformation [24]: Compound NOT metabolized; Bacterial Biotransformation [25]: Compound NOT metabolized; Bacterial Biotransformation [26]: Compound metabolized; Bacterial Biotransformation [27]: Compound metabolized; Bacterial Biotransformation [28]: Compound metabolized; Bacterial Biotransformation [29]: Compound metabolized; Bacterial Biotransformation [30]: Compound metabolized
